Reference: PMC10095950, “Development of Cell Permeable NanoBRET Probes for the Measurement of PLK1 Target Engagement in Live Cells” (Molecules, 2023)

Key:
Type in all cases: cell-based
PLK3 = target: T1, PLK3 (Homo sapiens, UniProt Q9H4B4); settings: live cell, K10 tracer
T1 construct: host or cells: HEK293

WEE1 = target: T2, WEE1 (Homo sapiens, UniProt P30291); settings: live cell, K10 tracer
T2 construct: host or cells: HEK293

GAK = target: T3, GAK (Homo sapiens, UniProt O14976); settings: live cell, K10 tracer
T3 construct: host or cells: HEK293
T3 sequence (O14976 1-1311): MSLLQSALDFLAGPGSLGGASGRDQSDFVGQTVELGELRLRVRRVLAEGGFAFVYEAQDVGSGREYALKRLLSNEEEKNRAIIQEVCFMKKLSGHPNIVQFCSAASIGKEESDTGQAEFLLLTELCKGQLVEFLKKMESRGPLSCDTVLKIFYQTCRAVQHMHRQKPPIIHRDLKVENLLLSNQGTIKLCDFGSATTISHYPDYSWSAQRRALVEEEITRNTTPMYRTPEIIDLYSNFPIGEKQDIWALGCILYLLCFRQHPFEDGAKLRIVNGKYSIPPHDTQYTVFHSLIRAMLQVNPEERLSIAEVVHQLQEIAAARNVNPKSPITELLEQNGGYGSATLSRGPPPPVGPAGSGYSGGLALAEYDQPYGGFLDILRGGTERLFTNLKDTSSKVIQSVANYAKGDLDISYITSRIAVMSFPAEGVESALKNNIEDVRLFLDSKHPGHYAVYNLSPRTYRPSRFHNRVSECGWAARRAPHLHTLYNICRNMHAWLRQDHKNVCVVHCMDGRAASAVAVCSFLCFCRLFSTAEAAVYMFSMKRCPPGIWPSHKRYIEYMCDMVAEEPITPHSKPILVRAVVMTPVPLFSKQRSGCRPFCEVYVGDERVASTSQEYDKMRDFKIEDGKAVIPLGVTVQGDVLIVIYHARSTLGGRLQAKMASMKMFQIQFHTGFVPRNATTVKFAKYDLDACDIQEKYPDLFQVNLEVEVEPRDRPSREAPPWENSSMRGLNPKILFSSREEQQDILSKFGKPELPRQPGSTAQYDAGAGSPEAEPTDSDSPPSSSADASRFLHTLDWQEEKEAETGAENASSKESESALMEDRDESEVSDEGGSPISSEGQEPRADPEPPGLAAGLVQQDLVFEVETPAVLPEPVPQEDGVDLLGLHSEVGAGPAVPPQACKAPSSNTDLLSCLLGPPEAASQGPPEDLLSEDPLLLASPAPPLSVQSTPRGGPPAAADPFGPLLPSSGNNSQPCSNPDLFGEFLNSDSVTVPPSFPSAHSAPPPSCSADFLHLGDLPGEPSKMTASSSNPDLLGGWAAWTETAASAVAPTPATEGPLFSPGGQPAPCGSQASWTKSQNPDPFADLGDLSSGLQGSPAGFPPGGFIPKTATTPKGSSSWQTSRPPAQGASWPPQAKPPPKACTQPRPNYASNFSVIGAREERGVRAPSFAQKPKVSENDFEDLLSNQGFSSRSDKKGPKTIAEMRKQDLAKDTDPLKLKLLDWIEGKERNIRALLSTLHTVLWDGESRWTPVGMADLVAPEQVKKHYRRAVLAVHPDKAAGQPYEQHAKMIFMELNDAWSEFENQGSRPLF

WEE2 = target: T4, WEE2 (Homo sapiens, UniProt P0C1S8); settings: live cell, K10 tracer
T4 construct: host or cells: HEK293

TNNI3K = target: T5, TNNI3K (Homo sapiens, UniProt Q59H18); settings: live cell, K10 tracer
T5 construct: host or cells: HEK293
T5 sequence (Q59H18 1-835): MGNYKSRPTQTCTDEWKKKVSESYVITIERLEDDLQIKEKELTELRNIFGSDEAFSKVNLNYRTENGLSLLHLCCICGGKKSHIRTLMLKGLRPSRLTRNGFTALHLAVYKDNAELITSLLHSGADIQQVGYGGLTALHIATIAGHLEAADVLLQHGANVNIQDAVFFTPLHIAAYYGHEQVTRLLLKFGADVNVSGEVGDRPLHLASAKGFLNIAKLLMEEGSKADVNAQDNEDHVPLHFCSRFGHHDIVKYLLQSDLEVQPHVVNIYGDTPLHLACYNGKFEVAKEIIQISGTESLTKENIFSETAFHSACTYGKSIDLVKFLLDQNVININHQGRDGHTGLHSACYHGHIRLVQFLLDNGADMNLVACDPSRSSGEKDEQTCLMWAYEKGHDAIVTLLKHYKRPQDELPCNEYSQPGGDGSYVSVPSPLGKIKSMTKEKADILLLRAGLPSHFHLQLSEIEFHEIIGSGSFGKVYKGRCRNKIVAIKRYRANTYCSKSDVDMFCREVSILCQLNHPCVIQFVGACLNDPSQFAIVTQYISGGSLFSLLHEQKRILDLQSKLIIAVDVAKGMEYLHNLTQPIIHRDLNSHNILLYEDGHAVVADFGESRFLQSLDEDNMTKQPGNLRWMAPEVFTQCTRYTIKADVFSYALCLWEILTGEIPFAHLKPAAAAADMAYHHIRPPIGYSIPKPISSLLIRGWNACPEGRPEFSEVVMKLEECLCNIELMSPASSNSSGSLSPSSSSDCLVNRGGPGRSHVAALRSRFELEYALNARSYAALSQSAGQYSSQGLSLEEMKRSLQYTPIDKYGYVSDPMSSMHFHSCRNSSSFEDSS

PLK2 = target: T6, PLK2 (Homo sapiens, UniProt Q9NYY3); settings: live cell, K10 tracer
T6 construct: host or cells: HEK293

human PLK1 (NLuc-PLK1) = target: T7, human PLK1 (NLuc-PLK1) (Homo sapiens, UniProt P53350); test: PLK1 NanoBRET target engagement assay (NLuc-PLK1, N-terminal fusion) in live HEK293 cells; settings: probe 11; at least three technical replicates; read-out: PLK1 NanoBRET IC50 (dose response, Figure 3a)
T7 construct: plasmid DNAs encoding N- and C-terminal fusions of full-length PLK1 with NLuc; host or cells: HEK293
Method: HEK293 cells (ATCC) were cultured in DMEM (Gibco) + 10% FBS (Seradigm) with incubation in a humidified 37 °C/5% CO2 incubator. N- or C-terminal NLuc/PLK fusions were encoded in pFN31K expression vectors (Promega), including flexible Gly-Ser-Ser-Gly linkers between NLuc and ORFs corresponding to UniProt isoform 1 (PLK1: P53350-1, PLK2: Q9NYY3-1, and PLK3: Q9H4B4-1). Carrier DNA was encoded in pGEM-3Z vectors (Promega). For cellular BRET target engagement experiments, HEK293 cells were transfected with NLuc/PLK fusion constructs using FuGENE HD (Promega) according to the manufacturer’s protocol. […] One part (vol) of FuGENE HD complexes thus formed was combined with 20 parts (vol) of HEK293 cells suspended at a density of 2 × 10^5 per mL, followed by incubation in a humidified 37 °C/5% CO2 incubator for 20 hr.
To test BRET probes 10 and 11 against PLK1, HEK293 adherent cells were incubated with either NLuc fused to the N-terminus of PLK1 (NLuc-PLK1) or the C-terminus of PLK1 (PLK1-NLuc) using 1 µM of the BRET probe, and mBRET units were measured. […] NLuc-PLK2 and NLuc-PLK3 were tested with both probes 10 and 11 using the same protocol.
To estimate the half-maximal effective concentration (EC50) of probe 11 to PLK1 in cells, adherent HEK293 cells in a 96-well plate expressing the NLuc-PLK1 fusion protein were mixed with an increasing concentration of BRET probe 11. The resulting BRET ratio was fitted to the sigmoidal 4-parameter dose–response curve using Prism 9.0 (GraphPad, Boston MA, USA).

MAP3K4 = target: T8, MAP3K4 (Homo sapiens, UniProt Q9Y6R4); settings: live cell, K10 tracer
T8 construct: host or cells: HEK293
T8 sequence (Q9Y6R4 whole entry): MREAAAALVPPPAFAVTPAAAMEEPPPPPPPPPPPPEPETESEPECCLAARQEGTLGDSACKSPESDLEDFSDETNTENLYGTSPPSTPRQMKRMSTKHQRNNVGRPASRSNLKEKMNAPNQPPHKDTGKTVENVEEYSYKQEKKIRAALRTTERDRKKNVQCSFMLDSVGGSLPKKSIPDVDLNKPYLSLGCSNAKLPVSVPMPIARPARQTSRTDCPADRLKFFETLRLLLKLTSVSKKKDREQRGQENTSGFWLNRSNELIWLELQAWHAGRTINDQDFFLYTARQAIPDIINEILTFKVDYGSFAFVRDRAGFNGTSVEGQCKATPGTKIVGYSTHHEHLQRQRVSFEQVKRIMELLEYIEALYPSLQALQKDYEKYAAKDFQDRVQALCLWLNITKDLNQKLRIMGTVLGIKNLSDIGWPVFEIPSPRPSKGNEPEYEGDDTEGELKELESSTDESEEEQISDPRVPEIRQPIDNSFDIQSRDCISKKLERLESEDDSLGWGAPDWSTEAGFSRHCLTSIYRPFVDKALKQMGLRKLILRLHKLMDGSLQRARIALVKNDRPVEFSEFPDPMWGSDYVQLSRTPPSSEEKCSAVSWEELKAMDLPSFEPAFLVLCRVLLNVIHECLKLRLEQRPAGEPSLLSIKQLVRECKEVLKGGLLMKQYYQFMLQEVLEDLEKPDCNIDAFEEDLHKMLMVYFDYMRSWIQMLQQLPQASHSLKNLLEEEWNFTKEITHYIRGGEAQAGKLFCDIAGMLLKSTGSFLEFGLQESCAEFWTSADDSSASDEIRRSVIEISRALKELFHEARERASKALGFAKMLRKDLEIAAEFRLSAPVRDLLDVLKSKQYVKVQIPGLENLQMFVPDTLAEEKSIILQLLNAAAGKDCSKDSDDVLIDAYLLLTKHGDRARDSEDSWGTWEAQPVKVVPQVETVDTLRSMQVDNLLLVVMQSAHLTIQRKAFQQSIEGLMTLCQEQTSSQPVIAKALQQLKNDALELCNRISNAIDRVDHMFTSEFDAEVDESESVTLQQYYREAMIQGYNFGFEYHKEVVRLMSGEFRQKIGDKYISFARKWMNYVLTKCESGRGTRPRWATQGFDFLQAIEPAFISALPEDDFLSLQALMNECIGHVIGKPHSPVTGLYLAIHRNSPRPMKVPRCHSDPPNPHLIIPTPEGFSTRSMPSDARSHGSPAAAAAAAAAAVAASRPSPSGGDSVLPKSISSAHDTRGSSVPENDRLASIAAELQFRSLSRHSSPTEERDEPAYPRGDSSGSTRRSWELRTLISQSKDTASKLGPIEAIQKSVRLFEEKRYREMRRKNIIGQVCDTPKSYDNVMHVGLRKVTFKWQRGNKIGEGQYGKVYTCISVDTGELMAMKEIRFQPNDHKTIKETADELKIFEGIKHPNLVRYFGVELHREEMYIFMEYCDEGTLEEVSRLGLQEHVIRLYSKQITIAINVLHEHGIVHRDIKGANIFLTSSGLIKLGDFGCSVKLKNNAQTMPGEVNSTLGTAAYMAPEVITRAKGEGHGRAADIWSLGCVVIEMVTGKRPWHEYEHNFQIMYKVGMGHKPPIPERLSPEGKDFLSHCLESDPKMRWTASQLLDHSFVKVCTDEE

T2 sequence (P30291 whole entry): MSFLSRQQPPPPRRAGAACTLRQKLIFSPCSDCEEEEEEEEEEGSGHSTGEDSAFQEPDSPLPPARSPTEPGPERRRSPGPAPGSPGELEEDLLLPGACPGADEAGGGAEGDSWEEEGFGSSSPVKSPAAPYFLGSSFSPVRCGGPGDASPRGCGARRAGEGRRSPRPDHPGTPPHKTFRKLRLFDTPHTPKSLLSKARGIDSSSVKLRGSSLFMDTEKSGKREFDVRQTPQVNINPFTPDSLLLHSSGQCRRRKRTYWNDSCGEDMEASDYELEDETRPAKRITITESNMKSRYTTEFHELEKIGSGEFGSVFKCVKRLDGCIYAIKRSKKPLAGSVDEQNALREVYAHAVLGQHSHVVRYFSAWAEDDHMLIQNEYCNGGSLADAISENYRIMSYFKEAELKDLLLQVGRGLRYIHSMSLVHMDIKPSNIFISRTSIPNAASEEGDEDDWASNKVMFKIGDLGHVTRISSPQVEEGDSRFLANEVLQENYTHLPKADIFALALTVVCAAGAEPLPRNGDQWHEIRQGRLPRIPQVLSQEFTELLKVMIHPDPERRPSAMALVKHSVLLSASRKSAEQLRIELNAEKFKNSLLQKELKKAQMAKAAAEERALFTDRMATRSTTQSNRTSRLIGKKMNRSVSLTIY
T7 sequence (P53350 whole entry, the tested form may be a part): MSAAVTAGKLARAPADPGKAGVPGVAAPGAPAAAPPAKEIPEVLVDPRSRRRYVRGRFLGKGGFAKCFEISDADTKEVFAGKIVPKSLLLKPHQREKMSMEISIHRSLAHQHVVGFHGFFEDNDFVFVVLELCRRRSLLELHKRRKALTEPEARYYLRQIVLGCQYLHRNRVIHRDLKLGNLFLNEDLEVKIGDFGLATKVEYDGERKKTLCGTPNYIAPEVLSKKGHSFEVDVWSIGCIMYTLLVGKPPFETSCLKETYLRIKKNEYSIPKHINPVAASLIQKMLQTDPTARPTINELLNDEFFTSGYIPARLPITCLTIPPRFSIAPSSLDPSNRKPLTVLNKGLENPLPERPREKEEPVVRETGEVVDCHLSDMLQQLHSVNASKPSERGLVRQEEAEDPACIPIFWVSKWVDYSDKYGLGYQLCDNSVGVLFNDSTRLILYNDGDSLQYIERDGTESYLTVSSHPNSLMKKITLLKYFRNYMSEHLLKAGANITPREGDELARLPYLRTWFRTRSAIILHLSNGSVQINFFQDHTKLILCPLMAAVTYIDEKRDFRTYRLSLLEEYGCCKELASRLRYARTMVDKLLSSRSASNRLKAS
T1 sequence (Q9H4B4 whole entry): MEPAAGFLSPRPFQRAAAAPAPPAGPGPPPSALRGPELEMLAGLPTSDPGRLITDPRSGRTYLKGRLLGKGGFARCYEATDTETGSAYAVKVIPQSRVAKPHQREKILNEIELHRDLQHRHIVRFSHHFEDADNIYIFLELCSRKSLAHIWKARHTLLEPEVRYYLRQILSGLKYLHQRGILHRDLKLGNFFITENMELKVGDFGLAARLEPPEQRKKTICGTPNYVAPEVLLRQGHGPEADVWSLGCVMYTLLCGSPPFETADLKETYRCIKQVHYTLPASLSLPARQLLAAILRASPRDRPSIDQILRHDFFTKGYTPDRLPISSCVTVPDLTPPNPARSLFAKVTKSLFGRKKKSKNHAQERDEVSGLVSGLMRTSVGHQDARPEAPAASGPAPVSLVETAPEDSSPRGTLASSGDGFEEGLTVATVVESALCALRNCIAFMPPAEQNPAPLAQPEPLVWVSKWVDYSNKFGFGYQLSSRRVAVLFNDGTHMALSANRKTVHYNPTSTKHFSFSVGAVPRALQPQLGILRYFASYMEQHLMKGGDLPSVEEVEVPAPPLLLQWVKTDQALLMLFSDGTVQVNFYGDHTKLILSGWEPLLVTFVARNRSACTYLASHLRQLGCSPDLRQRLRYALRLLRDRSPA
T6 sequence (Q9NYY3 whole entry): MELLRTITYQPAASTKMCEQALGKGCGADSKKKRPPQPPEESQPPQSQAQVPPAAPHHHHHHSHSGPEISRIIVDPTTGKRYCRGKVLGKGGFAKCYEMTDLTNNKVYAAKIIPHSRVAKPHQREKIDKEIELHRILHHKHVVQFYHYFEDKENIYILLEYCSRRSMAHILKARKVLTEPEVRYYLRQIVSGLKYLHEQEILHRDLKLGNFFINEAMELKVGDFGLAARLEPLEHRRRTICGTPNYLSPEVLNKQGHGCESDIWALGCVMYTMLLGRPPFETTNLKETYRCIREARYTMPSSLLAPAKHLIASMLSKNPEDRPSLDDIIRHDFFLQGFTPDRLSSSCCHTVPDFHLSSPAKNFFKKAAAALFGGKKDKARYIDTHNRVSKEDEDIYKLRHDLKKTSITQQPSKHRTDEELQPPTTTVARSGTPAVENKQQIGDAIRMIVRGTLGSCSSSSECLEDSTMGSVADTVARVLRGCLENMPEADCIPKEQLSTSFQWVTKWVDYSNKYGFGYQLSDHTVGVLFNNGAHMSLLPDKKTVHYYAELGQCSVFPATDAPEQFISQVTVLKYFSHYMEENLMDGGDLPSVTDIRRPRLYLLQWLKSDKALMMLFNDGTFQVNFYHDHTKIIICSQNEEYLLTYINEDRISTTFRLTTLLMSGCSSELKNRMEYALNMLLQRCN
T4 sequence (P0C1S8 whole entry): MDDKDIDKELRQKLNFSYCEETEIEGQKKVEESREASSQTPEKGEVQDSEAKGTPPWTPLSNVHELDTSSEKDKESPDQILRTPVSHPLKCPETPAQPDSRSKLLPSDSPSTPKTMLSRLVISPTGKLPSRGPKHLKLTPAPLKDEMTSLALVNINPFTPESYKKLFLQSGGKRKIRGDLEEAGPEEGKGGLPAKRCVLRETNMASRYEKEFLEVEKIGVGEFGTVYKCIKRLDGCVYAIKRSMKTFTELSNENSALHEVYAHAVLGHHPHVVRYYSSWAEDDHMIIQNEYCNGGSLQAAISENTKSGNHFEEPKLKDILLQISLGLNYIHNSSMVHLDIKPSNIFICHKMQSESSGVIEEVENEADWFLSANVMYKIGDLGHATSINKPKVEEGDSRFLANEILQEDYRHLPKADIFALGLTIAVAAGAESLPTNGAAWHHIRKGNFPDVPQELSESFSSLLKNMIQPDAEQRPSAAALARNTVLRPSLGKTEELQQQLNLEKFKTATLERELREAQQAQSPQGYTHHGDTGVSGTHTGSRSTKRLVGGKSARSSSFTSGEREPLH

Work on `C=CCn1c(=O)c2cnc(Nc3ccc(N4CCN(C)CC4)cc3)nc2n1-c1cccc(C(C)(C)O)n1` [adavosertib] yielded a receptor occupancy at 1 µM (PLK3) of 53%, a receptor occupancy at 1 µM (WEE1) of 95% and a receptor occupancy at 1 µM (GAK) of 63%. It also gave a receptor occupancy at 1 µM (WEE2) of 59%, a receptor occupancy at 1 µM (TNNI3K) of 70% and a receptor occupancy at 1 µM (PLK2) of 95%. For the same compound, the IC50 (human PLK1 (NLuc-PLK1)) was over 1000 nM and the receptor occupancy at 1 µM (MAP3K4) was 67%.
